Source: patent publication US20010051184A1, “METHOD FOR USING SOLUBLE CURCUMIN TO INHIBIT PHOSPHORYLASE KINASE IN INFLAMMATORY DISEASES” (priority 1999, published 2001)

Assays:
[1] = Solubility study on curcumin; format: physicochemical; details: for Solubility result: 0.5 g of curcumin
Procedure: Table 1 reports the results of a solubility study on curcumin. […] Curcumin is also not soluble in cold mineral oil or hot mineral oil. However, curcumin is soluble in 70% isopropyl alcohol to at least the extent of 0.5 g/50 ml.

[2] = system: phosphorylase kinase; assay: Phosphorylase kinase activity in treated psoriatic epidermis (Example 6); format: in vivo, human; details: mean±SD, n=10; curcumin alcoholic gel (1%) 4-6 weeks, Dovonex ointment 6-18 months; untreated psoriasis 1204.6±804.3, normal skin 105.4±44.6
Procedure: With consent, punch biopsies were collected (6 mm) from active plaques of 10 patients with active untreated psoriasis, from resolving plaques from 10 patients each treated with curcumin alcoholic gel (1%) for 4-6 weeks, and with Dovonex ointment for 6-18 months. Normal skin was also biopsied from 10 non-psoriatic patients to monitor the results. From each site, skin biopsy samples (6 mm punch) were stored at −70° C., and processed thereafter as previously described (Heng et al. (1994), supra). Briefly, each frozen sample, with the epidermal surface facing upwards, was placed in a glass tube to which 3 ml Tris-HCl buffer (10 mM Tris-HCl, pH 7.8, 1 mM dithiothreitol (DDT), 3 mM MgSO4 and 1 mM EGTA) was added. This was homogenized vigorously with a Teflon plunger in a TRIS-R model K41 homogenizer for 1 sec. Homogenization was repeated if necessary. The lysate of epidermal cells, separated from the dermis, was in the cytosolic solution. The fibroblasts that were inadvertently detached, together with the relatively intact piece of dermis, were removed by decanting the cytosolic solution into a 5 ml capacity polypropylene test tube. […] The filter paper containing […] was counted in a liquid scintillation counter. Enzyme activity was determined based on the standard curve prepared with phosphorylase kinase of known activity supplied by Sigma Co (St. Louis, Mo.).

[3] = system: TRR+ keratinocytes; assay: Transferrin receptor (TRR) expression by keratinocytes in treated psoriasis; format: in vivo, human; details: mean, n=10; treated resolving psoriasis; untreated 60.1%, normal skin 4.3%
Procedure: With consent, punch biopsies were collected (6 mm) from active plaques of 10 patients with active untreated psoriasis, from resolving plaques from 10 patients each treated with curcumin alcoholic gel (1%) for 4-6 weeks, and with Dovonex ointment for 6-18 months. Normal skin was also biopsied from 10 non-psoriatic patients to monitor the results. Biopsy specimens for immunocytochemistry were embedded in OCT compound (Tissue-Tek), snap-frozen in liquid nitrogen and stored at −70° C. Serial cryostat sections (4 Tm) were mounted on gelatin-coated slides and air-dried for 30 mins at room temperature. The mounted sections were then freeze-dried for 4 hours, fixed in acetone for 20 mins at room temperature, and air-dried for 5 mins prior to immunostaining. Monoclonal antibodies (as listed at Table 7), were added to the sections, which were then incubated for 60 mins at room temperature, washed in phosphate-buffered saline (PBS) pH 7.6, and overlaid with peroxidase conjugate. All monoclonal antibodies had been obtained from Becton-Dickinson and were used at 1:100 dilution. […] The expression of TRR on basal and suprabasal keratinocytes was quantified as the percentage of TRR+ keratinocytes per rete ridge. The keratinocytes of 10 consecutive rete ridges were assessed in for each biopsy and the results averaged.

[4] = system: parakeratosis of stratum corneum; assay: Severity of parakeratosis in treated psoriasis; format: in vivo, human; details: mean±SD, untreated 94.6±4.3%
Excerpt: With consent, punch biopsies were collected (6 mm) from active plaques of 10 patients with active untreated psoriasis, from resolving plaques from 10 patients each treated with curcumin alcoholic gel (1%) for 4-6 weeks, and with Dovonex ointment for 6-18 months. Normal skin was also biopsied from 10 non-psoriatic patients to monitor the results. Parakeratosis, assessed histologically by the loss of granular layer and the presence of nuclei of immature keratinocytes within the stratum comeum, reflects in part the migratory capacity of basal keratinocytes towards the stratum comeum. The severity of parakeratosis is assessed as % involvement of a 4 mm linear strip of stratum comeum. An average of three sections per biopsy specimen was used for data analysis.

[5] = system: epidermal CD8+ T cells; assay: Epidermal CD8+ T-cell density in treated psoriasis; format: in vivo, human; details: mean, untreated 38.2
Procedure: (§1) With consent, punch biopsies were collected (6 mm) from active plaques of 10 patients with active untreated psoriasis, from resolving plaques from 10 patients each treated with curcumin alcoholic gel (1%) for 4-6 weeks, and with Dovonex ointment for 6-18 months. Normal skin was also biopsied from 10 non-psoriatic patients to monitor the results. Biopsy specimens for immunocytochemistry were embedded in OCT compound (Tissue-Tek), snap-frozen in liquid nitrogen and stored at −70° C. Serial cryostat sections (4 Tm) were mounted on gelatin-coated slides and air-dried for 30 mins at room temperature. The mounted sections were then freeze-dried for 4 hours, fixed in acetone for 20 mins at room temperature, and air-dried for 5 mins prior to immunostaining. Monoclonal antibodies (as listed at Table 7), were added to the sections, which were then incubated for 60 mins at room temperature, washed in phosphate-buffered saline (PBS) pH 7.6, and overlaid with peroxidase conjugate. All monoclonal antibodies had been obtained from Becton-Dickinson and were used at 1:100 dilution. The sections were then washed with PBS and the peroxidase color developed using diaminobenzidine. Negative controls from all patients were processed as above, omitting the monoclonal antibodies. […] The density of the epidermal CD8+ T-cells was enumerated and quantified as the number of epidermal CD8+ T cells per hpf. […]

[6] = system: HLA-DR+ cells; assay: HLA-DR expression in treated psoriasis; format: in vivo, human
Procedure: as §1, with “diaminobenzidine.” for “diaminobenzidine. Negative controls from all patients were processed as above, omitting the monoclonal antibodies.”, “activated HLA+ inflammatory cell population” for “density of the epidermal CD8+ T-cells”, “assessed as abundant (200-500 or more cells/hpf), moderate (50-200 cells/hpf),” for “enumerated”, “sparse (1-50/hpf).” for “quantified as the number of epidermal CD8+ T cells per hpf.”

[7] = system: psoriatic plaques; assay: Clinical resolution of psoriatic plaques; format: in vivo, human; details: clinical observations
Excerpt: With consent, punch biopsies were collected (6 mm) from active plaques of 10 patients with active untreated psoriasis, from resolving plaques from 10 patients each treated with curcumin alcoholic gel (1%) for 4-6 weeks, and with Dovonex ointment for 6-18 months. Normal skin was also biopsied from 10 non-psoriatic patients to monitor the results.
In this study, the anti-psoriatic activity of curcumin is reported. Also known as diferuloylmethane, curcumin is a component in spices such as turmeric and ginger. […] Based on clinical observations that untreated psoriatic plaques resolve within 4-6 weeks with curcumin and between 6-18 months or more with Dovonex, the results of this Example lead to the conclusion that curcumin is at least as effective as Dovonex in producing clinical resolution of psoriatic plaques.

[8] = system: CD3+ T lymphocytes; assay: CD3+ T lymphocytes in curcumin-treated psoriatic skin (immunohistochemistry, FIG. 9); format: in vivo, human; details: FIG. 9b; T lymphocytes present only within dermal blood vessels

COc1cc(/C=C/C(=O)CC(=O)/C=C/c2ccc(O)c(OC)c2)ccc1O [curcumin, (E, E) 1,7-bis(4-hydroxy-3-methoxyphenyl)-1,6-heptadiene-3,5-dione]
Solubility in 70% isopropyl alcohol ([1]; 70% isopropyl alcohol): ≥ 0.5 g/50 ml | Solubility result ([1]; 70% isopropyl alcohol, 5 ml): Soluble (some precipitate? | Solubility result ([1]; 70% isopropyl alcohol, 50 ml): Soluble (no precipitate) | Solubility result ([1]; Cold water, 5 ml): Not soluble (precipitate present) | Solubility result ([1]; Cold water, 50 ml): Not soluble (precipitate present) | Solubility result ([1]; Cold water, 500 ml): Not soluble (precipitate present) | Solubility result ([1]; Mineral oil (140° F.), 5 ml): Not soluble (precipitate present) | Solubility result ([1]; Mineral oil (140° F.), 50 ml): Not soluble (precipitate present) | Solubility result ([1]; Mineral oil, 5 ml): Not soluble (precipitate present) | Solubility result ([1]; Mineral oil, 50 ml): Not soluble (precipitate present) | Solubility result ([1]; Water (200° F.), 5 ml): Not soluble (precipitate present) | Solubility result ([1]; Water (200° F.), 50 ml): Not soluble (precipitate present) | Solubility result ([1]; Water (200° F.), 500 ml): Not soluble (precipitate present) | Solubility ([1]; cold mineral oil): not soluble | Solubility ([1]; cold water): not soluble | Solubility ([1]; hot mineral oil): not soluble | Solubility ([1]; hot water): not soluble | Phosphorylase kinase activity in treated psoriatic epidermis [2]: 207.2±97.6 units/mg protein | Percentage of TRR+ keratinocytes/rete ridge [3]: 4.3% | Parakeratosis, linear involvement of stratum corneum [4]: 1.4±2.4% | Number of epidermal CD8+ cells/hpf [5]: 0.6 cells/hpf | Overall HLA-DR expression (HLA-DR+ inflammatory cell population), grade per specimen ([6]; 10 skin specimens per treated group, untreated abundant in 10/10): sparse (sparse (1-50/hpf)) | HLA-DR expression on endothelial cells and keratinocytes ([6]; treated psoriasis, untreated strongly positive): not observed | Time for psoriatic plaques to resolve under curcumin treatment [7]: 4-6 weeks | CD3+ T lymphocytes in epidermis of treated resolving psoriatic skin [8]: lack of T lymphocytes in epidermis
